In US20230150974A1 (Foghorn Therapeutics Inc., priority 2020, published 2023):
Where a name gives a salt, the structure may show the parent alone.

Key:
[1] = biological target: T1, HiBiT-BRM (Homo sapiens, UniProt P51531); experiment: HiBiT-BRM cell-based degradation assay (Nano-Glo HiBiT Lytic Detection); details: HeLa cells expressing HiBiT-BRM, 24 h; for DC50: read-out: BRM HiBit Degradation IC50
T1 construct: expressed in transfected cells
Summary of the method: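 HeLa cells stably expressing HiBiT-tagged BRM were treated for 24 h, then lysed with LgBiT-containing Nano-Glo reagent and luminescence read. % degradation scaled between DMSO (high control) and 2 μM reference BRM/BRG1 degrader (low control).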

[2] = biological target: T2, HiBit-BRG1 (Homo sapiens, UniProt P51532); experiment: HiBit-BRG1 cell-based degradation assay (Nano-Glo HiBiT Lytic Detection); details: HeLa cells expressing HiBit-BRG1 and LgBit, 24 h; for DC50: read-out: BRG1 HiBit Degradation IC50; for Dmax: read-out: BRG1 HiBit Degradation Maximum (%)
T2 construct: expressed in transfected cells
T2 sequence (P51532 whole entry): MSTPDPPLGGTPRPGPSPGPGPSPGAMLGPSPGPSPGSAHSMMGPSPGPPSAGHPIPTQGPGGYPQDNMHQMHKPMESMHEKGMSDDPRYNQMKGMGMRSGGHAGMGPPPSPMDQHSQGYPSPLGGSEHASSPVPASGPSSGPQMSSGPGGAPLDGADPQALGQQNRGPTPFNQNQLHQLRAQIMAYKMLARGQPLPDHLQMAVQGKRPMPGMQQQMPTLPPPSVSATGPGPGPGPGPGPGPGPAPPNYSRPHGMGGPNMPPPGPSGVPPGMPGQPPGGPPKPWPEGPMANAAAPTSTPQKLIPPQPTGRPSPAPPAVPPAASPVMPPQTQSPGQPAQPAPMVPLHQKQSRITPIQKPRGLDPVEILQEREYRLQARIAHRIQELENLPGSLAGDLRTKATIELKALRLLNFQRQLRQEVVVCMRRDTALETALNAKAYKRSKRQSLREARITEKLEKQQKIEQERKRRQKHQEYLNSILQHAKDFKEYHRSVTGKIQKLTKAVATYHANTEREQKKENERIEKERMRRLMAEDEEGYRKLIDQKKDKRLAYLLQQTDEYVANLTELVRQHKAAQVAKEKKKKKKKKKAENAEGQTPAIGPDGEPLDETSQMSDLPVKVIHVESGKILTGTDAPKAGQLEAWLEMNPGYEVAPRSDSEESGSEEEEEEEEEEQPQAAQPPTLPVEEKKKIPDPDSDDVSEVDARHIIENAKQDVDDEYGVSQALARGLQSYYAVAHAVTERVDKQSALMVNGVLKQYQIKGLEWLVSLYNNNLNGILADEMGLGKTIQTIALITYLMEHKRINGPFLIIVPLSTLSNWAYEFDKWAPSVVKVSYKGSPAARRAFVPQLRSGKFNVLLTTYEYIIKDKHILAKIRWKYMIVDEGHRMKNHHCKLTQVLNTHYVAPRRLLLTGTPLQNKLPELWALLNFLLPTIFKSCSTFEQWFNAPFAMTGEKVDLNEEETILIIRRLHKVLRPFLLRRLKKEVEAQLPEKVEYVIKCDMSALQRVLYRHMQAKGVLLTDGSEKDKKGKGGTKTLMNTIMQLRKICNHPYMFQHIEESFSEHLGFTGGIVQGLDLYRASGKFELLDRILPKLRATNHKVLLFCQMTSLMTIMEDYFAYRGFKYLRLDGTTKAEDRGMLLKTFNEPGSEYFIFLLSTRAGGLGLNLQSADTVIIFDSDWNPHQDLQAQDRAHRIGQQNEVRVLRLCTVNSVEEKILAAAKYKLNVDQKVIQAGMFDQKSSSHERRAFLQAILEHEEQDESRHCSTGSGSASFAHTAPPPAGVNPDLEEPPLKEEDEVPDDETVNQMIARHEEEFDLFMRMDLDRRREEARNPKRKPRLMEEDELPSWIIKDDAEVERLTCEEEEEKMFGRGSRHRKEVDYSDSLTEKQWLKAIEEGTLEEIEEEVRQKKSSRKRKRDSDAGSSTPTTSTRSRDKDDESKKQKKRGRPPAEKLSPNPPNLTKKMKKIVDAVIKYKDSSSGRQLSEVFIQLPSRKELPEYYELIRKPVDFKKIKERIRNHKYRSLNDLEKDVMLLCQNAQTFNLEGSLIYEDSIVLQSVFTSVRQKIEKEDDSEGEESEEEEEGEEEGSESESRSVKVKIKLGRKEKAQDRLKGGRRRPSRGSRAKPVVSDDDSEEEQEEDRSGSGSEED
Summary of the method: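 HeLa cells stably expressing HiBiT-BRG1 plus LgBit, 5000/well, treated 24 h, then lysed with Nano-Glo HiBiT lytic reagent and luminescence read. % degradation normalised between DMSO (high control) and 2 μM reference BRM/BRG1 degrader (low control).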

T1 sequence (P51531 whole entry): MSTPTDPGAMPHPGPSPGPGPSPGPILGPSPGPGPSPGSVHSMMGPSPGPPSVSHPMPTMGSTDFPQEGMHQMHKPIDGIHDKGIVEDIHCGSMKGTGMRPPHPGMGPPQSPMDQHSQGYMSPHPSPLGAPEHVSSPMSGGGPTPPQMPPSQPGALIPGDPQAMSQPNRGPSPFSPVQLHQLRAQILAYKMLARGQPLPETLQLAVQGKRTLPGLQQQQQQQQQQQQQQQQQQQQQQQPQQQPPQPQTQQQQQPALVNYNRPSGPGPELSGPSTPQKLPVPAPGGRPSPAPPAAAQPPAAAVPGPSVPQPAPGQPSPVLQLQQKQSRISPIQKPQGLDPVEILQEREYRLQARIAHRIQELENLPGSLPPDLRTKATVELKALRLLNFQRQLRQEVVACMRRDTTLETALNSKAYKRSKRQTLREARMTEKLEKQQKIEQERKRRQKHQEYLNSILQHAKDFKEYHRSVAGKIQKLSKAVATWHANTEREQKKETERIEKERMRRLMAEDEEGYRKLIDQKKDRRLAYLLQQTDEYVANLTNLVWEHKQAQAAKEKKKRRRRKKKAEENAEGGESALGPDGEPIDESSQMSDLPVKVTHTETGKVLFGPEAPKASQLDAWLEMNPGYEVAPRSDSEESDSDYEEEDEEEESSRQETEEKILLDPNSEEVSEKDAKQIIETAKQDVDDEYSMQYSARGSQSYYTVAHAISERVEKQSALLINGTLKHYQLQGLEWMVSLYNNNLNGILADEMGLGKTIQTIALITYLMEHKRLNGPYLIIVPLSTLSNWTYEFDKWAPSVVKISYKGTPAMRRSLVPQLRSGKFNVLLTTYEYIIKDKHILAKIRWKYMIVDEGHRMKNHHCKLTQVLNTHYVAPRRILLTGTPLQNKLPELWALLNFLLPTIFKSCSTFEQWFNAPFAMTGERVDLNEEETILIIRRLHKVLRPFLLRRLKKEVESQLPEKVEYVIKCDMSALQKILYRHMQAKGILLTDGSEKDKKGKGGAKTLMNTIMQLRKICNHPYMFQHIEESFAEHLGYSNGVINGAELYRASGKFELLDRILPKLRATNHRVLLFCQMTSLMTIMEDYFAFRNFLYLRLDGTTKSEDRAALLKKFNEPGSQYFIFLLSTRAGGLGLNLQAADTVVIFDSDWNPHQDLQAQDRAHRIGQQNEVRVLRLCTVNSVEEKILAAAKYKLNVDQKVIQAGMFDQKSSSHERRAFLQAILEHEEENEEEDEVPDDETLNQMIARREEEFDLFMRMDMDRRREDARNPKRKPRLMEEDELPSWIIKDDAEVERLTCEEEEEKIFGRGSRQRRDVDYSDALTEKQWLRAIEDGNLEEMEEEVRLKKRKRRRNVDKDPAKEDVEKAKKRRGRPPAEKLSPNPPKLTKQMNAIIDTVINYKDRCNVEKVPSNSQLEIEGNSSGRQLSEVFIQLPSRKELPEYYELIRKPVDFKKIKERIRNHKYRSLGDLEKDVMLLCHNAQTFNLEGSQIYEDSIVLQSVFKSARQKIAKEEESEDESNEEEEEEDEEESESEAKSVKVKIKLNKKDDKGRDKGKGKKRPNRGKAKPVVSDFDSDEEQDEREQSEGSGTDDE

Structure (SMILES)	BRM HiBit Degradation Maximum (%) [1]	DC50 [1]	DC50 [2]	Dmax [2]
CN(CCCCCNc1cccc2c1C(=O)N(C1CCC(=O)NC1=O)C2=O)Cc1ccc(CCOc2cc(-c3ccccc3O)nnc2N)cc1 (centres unmarked) [Compound 156, 4-((5-((4-(2-((3-amino-6-(2-hydroxyphenyl)pyridazin-4-yl)oxy)ethyl)benzyl)(methyl)amino)pentyl)amino)-2-(2,6-dioxopiperidin-3-yl)isoindoline-1,3-dione formate]	B (“B” indicates maximum degradation ≥50%)	> 0.01 µM	< 0.01 µM	> 50%
Nc1nnc(-c2ccccc2O)cc1OCCc1ccc(CNCCN2CC3CC2CN3c2cccc3c2C(=O)N(C2CCC(=O)NC2=O)C3=O)cc1 (centres unmarked) [Compound 158, 4-(5-(2-((4-(2-((3-amino-6-(2-hydroxyphenyl)pyridazin-4-yl)oxy)ethyl)benzyl)amino)ethyl)-2,5-diazabicyclo[2.2.1]heptan-2-yl)-2-(2,6-dioxopiperidin-3-yl)isoindoline-1,3-dione]	B (“B” indicates maximum degradation ≥50%)	> 0.1 µM	> 0.1 µM	> 50%
Cc1ncsc1-c1ccc(CNC(=O)[C@@H]2C[C@@H](O)CN2C(=O)[C@@H](NC(=O)CCCCCCCCCCCCCC(=O)N(C)Cc2ccc(CCOc3cc(-c4ccccc4O)nnc3N)cc2)C(C)(C)C)cc1 [Compound 159, N1-(4-(2-((3-amino-6-(2-hydroxyphenyl)pyridazin-4-yl)oxy)ethyl)benzyl)-N15-((S)-1-((2S,4R)-4-hydroxy-2-((4-(4-methylthiazol-5-yl)benzyl)carbamoyl)pyrrolidin-1-yl)-3,3-dimethyl-1-oxobutan-2-yl)-N1-methylpentadecanediamide]	A (“A” indicates maximum degradation ≥75%)	> 0.01 µM	> 1 µM	< 50%
CN(CCc1ccc(CNCCN2CCN(c3cccc4c3C(=O)N(C3CCC(=O)NC3=O)C4=O)CC2)cc1)c1cc(-c2ccccc2O)nnc1N (centres unmarked) [Compound 160, 4-(4-(2-((4-(2-((3-amino-6-(2-hydroxyphenyl)pyridazin-4-yl)(methyl)amino)ethyl)benzyl)amino)ethyl)piperazin-1-yl)-2-(2,6-dioxopiperidin-3-yl)isoindoline-1,3-dione diformate]	B (“B” indicates maximum degradation ≥50%)	> 1 µM	> 1 µM	> 50%
Cc1ncsc1-c1ccc(CNC(=O)[C@@H]2C[C@@H](O)CN2C(=O)[C@@H](NC(=O)COCCNC(=O)c2ccc(CCOc3cc(-c4ccccc4O)nnc3N)cc2)C(C)(C)C)cc1 [Compound 163, (2S,4R)-1-((S)-2-(2-(2-(4-(2-((3-amino-6-(2-hydroxyphenyl)pyridazin-4-yl)oxy)ethyl)benzamido)ethoxy)acetamido)-3,3-dimethylbutanoyl)-4-hydroxy-N-(4-(4-methylthiazol-5-yl)benzyl)pyrrolidine-2-carboxamide]	B (“B” indicates maximum degradation ≥50%)	> 1 µM	> 1 µM	< 50%
Cc1ncsc1-c1ccc(CNC(=O)[C@@H]2C[C@@H](O)CN2C(=O)[C@@H](NC(=O)COCCOCC(=O)NCc2ccc(CCOc3cc(-c4ccccc4O)nnc3N)cc2)C(C)(C)C)cc1 [Compound 164, (2S,4R)-1-((S)-1-(4-(2-((3-amino-6-(2-hydroxyphenyl)pyridazin-4-yl)oxy)ethyl)phenyl)-12-(tert-butyl)-3,10-dioxo-5,8-dioxa-2,11-diazatridecan-13-oyl)-4-hydroxy-N-(4-(4-methylthiazol-5-yl)benzyl)pyrrolidine-2-carboxamide]	B (“B” indicates maximum degradation ≥50%)	> 1 µM	> 1 µM	< 50%
Cc1ncsc1-c1ccc(CNC(=O)[C@@H]2C[C@@H](O)CN2C(=O)[C@@H](NC(=O)COCC(=O)NCc2ccc(CCOc3cc(-c4ccccc4O)nnc3N)cc2)C(C)(C)C)cc1 [Compound 165, (2S,4R)-1-((S)-2-(2-(2-((4-(2-((3-amino-6-(2-hydroxyphenyl)pyridazin-4-yl)oxy)ethyl)benzyl)amino)-2-oxoethoxy)acetamido)-3,3-dimethylbutanoyl)-4-hydroxy-N-(4-(4-methylthiazol-5-yl)benzyl)pyrrolidine-2-carboxamide]	A (“A” indicates maximum degradation ≥75%)	> 1 µM	> 1 µM	< 50%
Nc1nnc(-c2ccccc2O)cc1NCCc1ccc(CNCCN2CCN(c3cccc4c3C(=O)N(C3CCC(=O)NC3=O)C4=O)CC2)cc1 (centres unmarked) [Compound 166, 4-(4-(2-((4-(2-((3-amino-6-(2-hydroxyphenyl)pyridazin-4-yl)amino)ethyl)benzyl)amino)ethyl)piperazin-1-yl)-2-(2,6-dioxopiperidin-3-yl)isoindoline-1,3-dione]	C (“C” indicates maximum degradation <50%)	> 1 µM	> 1 µM	< 50%
Cc1ncsc1-c1ccc(CNC(=O)[C@@H]2C[C@@H](O)CN2C(=O)[C@@H](NC(=O)COCCOCCOCCOCCOCCNC(=O)c2ccc(CCOc3cc(-c4ccccc4O)nnc3N)cc2)C(C)(C)C)cc1 [Compound 167, (2S,4R)-1-((S)-1-(4-(2-((3-amino-6-(2-hydroxyphenyl)pyridazin-4-yl)oxy)ethyl)phenyl)-21-(tert-butyl)-1,19-dioxo-5,8,11,14,17-pentaoxa-2,20-diazadocosan-22-oyl)-4-hydroxy-N-(4-(4-methylthiazol-5-yl)benzyl)pyrrolidine-2-carboxamide]	B (“B” indicates maximum degradation ≥50%)	> 1 µM	> 1 µM	< 50%
Cc1ncsc1-c1ccc(CNC(=O)[C@@H]2C[C@@H](O)CN2C(=O)[C@@H](NC(=O)COCCOCCOCCOCCOCC(=O)NCc2ccc(CCOc3cc(-c4ccccc4O)nnc3N)cc2)C(C)(C)C)cc1 [Compound 168, N1-(4-(2-((3-amino-6-(2-hydroxyphenyl)pyridazin-4-yl)oxy)ethyl)benzyl)-N17-((S)-1-((2S,4R)-4-hydroxy-2-((4-(4-methylthiazol-5-yl)benzyl)carbamoyl)pyrrolidin-1-yl)-3,3-dimethyl-1-oxobutan-2-yl)-3,6,9,12,15-pentaoxaheptadecanedia]	C (“C” indicates maximum degradation <50%)	> 1 µM	> 1 µM	< 50%
Cc1ncsc1-c1ccc(CNC(=O)[C@@H]2C[C@@H](O)CN2C(=O)[C@@H](NC(=O)CCCCCCCCCCCCCC(=O)NCc2ccc(CCOc3cc(-c4ccccc4O)nnc3N)cc2)C(C)C)cc1 [Compound 169, N1-(4-(2-((3-amino-6-(2-hydroxyphenyl)pyridazin-4-yl)oxy)ethyl)benzyl)-N15-((S)-1-((2S,4R)-4-hydroxy-2-((4-(4-methylthiazol-5-yl)benzyl)carbamoyl)pyrrolidin-1-yl)-3-methyl-1-oxobutan-2-yl)pentadecanediamide]	B (“B” indicates maximum degradation ≥50%)	> 0.1 µM	> 1 µM	< 50%
Cc1ncsc1-c1ccc(CNC(=O)[C@@H]2C[C@@H](O)CN2C(=O)[C@@H](NC(=O)CCCCCCCCCNC(=O)c2ccc(CCOc3cc(-c4ccccc4O)nnc3N)cc2)C(C)C)cc1 [Compound 170, (2S,4R)-1-((10-(4-(2-((3-amino-6-(2-hydroxyphenyl)pyridazin-4-yl)oxy)ethyl)benzamido)decanoyl)-L-valyl)-4-hydroxy-N-(4-(4-methylthiazol-5-yl)benzyl)pyrrolidine-2-carboxamide]	C (“C” indicates maximum degradation <50%)	> 1 µM	> 1 µM	< 50%
Cc1ncsc1-c1ccc([C@H](C)NC(=O)[C@@H]2C[C@@H](O)CN2C(=O)[C@@H](NC(=O)CCCCCCCCCNC(=O)c2ccc(CCOc3cc(-c4ccccc4O)nnc3N)cc2)C(C)(C)C)cc1 [Compound 171, (2S,4R)-1-((S)-2-(10-(4-(2-((3-amino-6-(2-hydroxyphenyl)pyridazin-4-yl)oxy)ethyl)benzamido)decanamido)-3,3-dimethylbutanoyl)-4-hydroxy-N-((S)-1-(4-(4-methylthiazol-5-yl)phenyl)ethyl)pyrrolidine-2-carboxamide]	A (“A” indicates maximum degradation ≥75%)	> 0.1 µM	> 1 µM	> 50%
Cc1ncsc1-c1ccc([C@H](C)NC(=O)[C@@H]2C[C@@H](O)CN2C(=O)[C@@H](NC(=O)CCCCCCCCCCCCCCCC(=O)NCc2ccc(CCOc3cc(-c4ccccc4O)nnc3N)cc2)C(C)(C)C)cc1 [Compound 172, N1-(4-(2-((3-amino-6-(2-hydroxyphenyl)pyridazin-4-yl)oxy)ethyl)benzyl)-N17-((S)-1-((2S,4R)-4-hydroxy-2-(((S)-1-(4-(4-methylthiazoi-5-yl)phenyl)ethyl)carbamoyl)pyrrolidin-1-yl)-3,3-dimethyl-1-oxobutan-2-yl)heptadecanediamide]	A (“A” indicates maximum degradation ≥75%)	> 0.01 µM	> 0.1 µM	> 50%
